We go through 13 molecules from US6949536B2, “Sulfonylbenzene compounds as anti-inflammatory/analgesic agents” (Pfizer, Inc., priority 1998, dated 2005).

The structures appear in SMILES notation. Counter-ions that a name gives are not always drawn.

For orientation: melting point means the temperature of the solid-liquid transition. `Cc1ccc(-c2ccc(S(C)(=O)=O)cc2)n1-c1ccc(-c2ccco2)cc1` [Example 44, 1-[4-(2-Furyl)phenyl]-2-methyl-5-[4-(methylsulfonyl)phenyl]-1H-pyrrole]: the melting point was 145 to 147 °C.
`NS(=O)(=O)c1ccc(-n2nc(C(F)(F)F)cc2-c2ccc(-c3ccco3)cc2)c(Cl)c1` (as salt: hydrochloride) [Example 140, 3-Chloro-4-[5-[4-(2-furyl)phenyl]-3-(trifluoromethyl)-1H-pyrazol-1-yl]benzenesulfonamide]: the melting point is 190.3 °C.
`CS(=O)(=O)c1ccc(-n2nc(C(=O)O)cc2-c2ccc(-c3ccco3)cc2)cc1F` [Example 128, 1-[3-Fluoro-4-(methylsulfonyl)phenyl]-5-[4-(2-furyl)phenyl]-1H-pyrazole-3-carboxylic Acid]: the melting point was 171.5 to 173 °C.
Under `CS(=O)(=O)c1ccc(-n2nc(C(F)(F)F)cc2-c2ccc(-n3ccnc3)cc2)cc1` [Example 66, 5-[4-(1-Imidazolyl)phenyl]-1-[4-(methylsulfonyl)phenyl]-3-trifluoromethyl-1H-pyrazol] stands 183 to 184 °C; under `Cc1cc(-c2cc(C(F)(F)F)nn2-c2ccc(S(N)(=O)=O)c(F)c2)ccc1-c1cscn1` (as salt: hydrochloride) [Example 113, 2-Fluoro-4-[5-[3-methyl-4-(1,3-thiazol-4-yl)phenyl]-3-(trifluoromethyl)-1H-pyrazol-1-yl]benzenesulfonamide], 125 to 127 °C; under `Cc1cc(-c2cc(C(F)(F)F)nn2-c2ccc(S(C)(=O)=O)c(F)c2)ccc1-c1cscn1` [Example 106, 4-{4-[1-[3-Fluoro-4-(methylsulfonyl)phenyl]-3-(trifluoromethyl)-1H-pyrazol-5-yl]-2-methylphenyl}-1,3-thiazole], 112 to 114 °C.
The figure for `CS(=O)(=O)c1ccc(-n2nc(C(F)(F)F)cc2-c2ccc(-c3cccs3)cc2)cc1F` [Example 86, 1-[3-Fluoro-4-(methylsulfonyl)phenyl]-5-[4-(2-thienyl)phenyl]-3-(trifluoromethyl)-1H-pyrazole] is 75 to 76 °C.
Molecule `Cc1ccc(-c2ccc(S(C)(=O)=O)c(F)c2)n1-c1ccc(-c2ccco2)cc1` [Example 35, 5-[3-Fluoro-4-(methylsulfonyl)phenyl]-1-[4-(2-furyl)phenyl]-2-methyl-1H-pyrrole] had a melting point of 179 to 182 °C.
Under `CS(=O)(=O)c1ccc(-n2nc(C(F)(F)F)cc2-c2ccc(-c3ccoc3)cc2)cc1F` [Example 85, 1-[3-Fluoro-4-(methylsulfonyl)phenyl]-5-[4-(3-furyl)phenyl]-3-(trifluoromethyl)-1H-pyrazole] stands 74 to 76 °C; under `Cc1nc(-c2ccc(-c3cscn3)c(C)c2)c(-c2ccc(S(C)(=O)=O)c(F)c2)o1` [Example 173, 5-[3-Fluoro-4-(methylsulfonyl)phenyl]-2-methyl-4-[3-methyl-4-(1,3-thiazol-4-yl)phenyl]-1,3-oxazole], 177 to 178 °C; under `Cc1ccc(-c2ccc(S(C)(=O)=O)cc2)n1-c1ccc(-c2ccco2)c(Cl)c1` [Example 42, 1-[3-Chloro-4-(2-furyl)phenyl]-2-methyl-5-[4-(methylsulfonyl)phenyl]-1H-pyrrole], 127 to 131 °C.
Under `Cc1cc(-c2ccc(S(C)(=O)=O)cc2)n(-c2ccc(-c3ccco3)cc2)c1` [Example 58, 1-[4-(2-Furyl)phenyl]-4-methyl-2-[4-(methylsulfonyl)phenyl]-1H-pyrrole] stands 133 to 135 °C.
The molecule `Cc1cc(-c2cc(C(F)(F)F)nn2-c2ccc(S(C)(=O)=O)cc2)ccc1-c1ccco1` (as salt: hydrochloride) [Example 31, 1-[4-(Methylsulfonyl)phenyl]-5-[4-(2-furyl)-3-methylphenyl]-3-(trifluoromethyl)-1H-pyrazole] displayed a melting point of 174 to 176 °C.
